Assay results as given in article PMC8150775, “Repositioning Azelnidipine as a Dual Inhibitor Targeting CD47/SIRPα and TIGIT/PVR Pathways for Cancer Immuno-Therapy” (Biomolecules, 2021).

What was measured:
[1] = biological target: mouse PVR (Mus musculus, UniProt F6V4I7); experiment: Microscale thermophoresis (MST) binding
Description: (§1) MST assays were performed to test the affinity of SMI-F11 (azelnidipine) to the indicated protein using the Monolith NT.115 system, as previously reported. His tagged human SIRPα (SIA-H5225, ACRO Biosystem, Beijing, China), mouse SIRPα (50956-M08H, Sino Biological, Beijing, China), human PVR (CD5-H5223, ACRO Biosystem, Beijing, China), and mouse PVR (50259-M08H, Sino Biological, Beijing, China) were used. The protein was labeled with Red-NHS647 dye (NanoTemper Technologies GmhH, Munich, Germany) according to the manufacturer’s instructions. Azelnidipine was 2-fold serially diluted from 200 μM and subsequently tested. Red-NHS647 dye-labeled protein was incubated with the diluted azelnidipine, with equal volume for 5 min at room temperature; the mixture was then loaded onto standard capillaries for detection. The KD values were calculated by the analysis software (MO. Affinity Analysis, version number 2.2.4, NanoTemper Technologies GmhH, Munich, Germany).

[2] = biological target: T1, human SIRPα (Homo sapiens, UniProt P78324); experiment: Microscale thermophoresis (MST) binding
T1 construct: His; purchased ACRO Biosystem SIA-H5225
T1 sequence (P78324 31-504): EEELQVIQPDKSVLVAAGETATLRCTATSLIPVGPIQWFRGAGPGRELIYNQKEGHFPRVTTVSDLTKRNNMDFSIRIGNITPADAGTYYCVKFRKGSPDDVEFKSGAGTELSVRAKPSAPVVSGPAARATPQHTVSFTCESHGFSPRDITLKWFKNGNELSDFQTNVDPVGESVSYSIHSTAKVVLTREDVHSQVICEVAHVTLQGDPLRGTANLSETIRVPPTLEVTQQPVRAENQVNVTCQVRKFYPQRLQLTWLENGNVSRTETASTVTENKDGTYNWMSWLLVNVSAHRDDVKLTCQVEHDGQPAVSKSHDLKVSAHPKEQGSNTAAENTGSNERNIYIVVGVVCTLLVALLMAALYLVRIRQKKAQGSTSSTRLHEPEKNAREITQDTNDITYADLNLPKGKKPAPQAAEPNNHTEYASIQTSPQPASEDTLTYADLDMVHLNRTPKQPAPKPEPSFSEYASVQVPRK
Description: as §1

[3] = biological target: T2, human PVR (Homo sapiens, UniProt P15151); experiment: Microscale thermophoresis (MST) binding
T2 construct: His; purchased ACRO Biosystem CD5-H5223
Description: as §1

[4] = biological target: T3, mouse SIRPα (Mus musculus, UniProt P97797); experiment: Microscale thermophoresis (MST) binding
T3 construct: His; purchased Sino Biological 50956-M08H
T3 sequence (P97797 32-513): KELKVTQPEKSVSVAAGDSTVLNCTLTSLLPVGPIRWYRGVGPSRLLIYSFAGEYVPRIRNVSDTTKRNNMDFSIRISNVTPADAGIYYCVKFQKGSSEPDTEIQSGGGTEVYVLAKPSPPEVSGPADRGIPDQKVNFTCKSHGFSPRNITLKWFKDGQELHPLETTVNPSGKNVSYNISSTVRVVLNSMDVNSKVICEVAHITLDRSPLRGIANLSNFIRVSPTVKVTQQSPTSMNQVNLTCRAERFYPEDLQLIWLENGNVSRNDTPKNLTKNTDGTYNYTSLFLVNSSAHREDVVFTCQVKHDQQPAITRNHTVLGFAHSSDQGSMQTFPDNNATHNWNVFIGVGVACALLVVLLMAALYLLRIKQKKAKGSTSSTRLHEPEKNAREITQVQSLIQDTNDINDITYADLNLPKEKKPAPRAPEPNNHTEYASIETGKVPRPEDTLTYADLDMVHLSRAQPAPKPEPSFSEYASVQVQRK
Description: as §1

[5] = test system: THP-1 macrophages; set-up: method as in PMID 29398679, PMID 20606305; details: cited from earlier work
[6] = test system: various tumor cells; set-up: method as in earlier work; details: cited from earlier work
[7] = biological target: T4, TIGIT/PVR interaction (Homo sapiens, UniProt P15151); experiment: Blocking assay by flow cytometry, preliminary screening at a single concentration, TIGIT/PVR; assay type: binding; details: preliminary test, single concentration of 100 μM
T4 construct: purchased ACRO Biosystem CD5-H82F6; host or cells: CHOK1-TIGIT cells (lenti-viral transfection)
T4 sequence (P15151 21-343 limits assumed): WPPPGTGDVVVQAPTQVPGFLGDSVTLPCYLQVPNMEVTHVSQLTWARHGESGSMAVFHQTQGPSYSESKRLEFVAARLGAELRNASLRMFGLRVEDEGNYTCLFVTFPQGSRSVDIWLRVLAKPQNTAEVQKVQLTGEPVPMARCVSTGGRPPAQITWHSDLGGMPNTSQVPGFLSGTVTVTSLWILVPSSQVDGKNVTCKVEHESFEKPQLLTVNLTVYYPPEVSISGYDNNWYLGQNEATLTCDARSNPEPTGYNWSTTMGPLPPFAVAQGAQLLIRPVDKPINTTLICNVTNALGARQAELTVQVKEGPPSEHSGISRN
Description: The abilities of small molecule inhibitors (SMIs) (purchased from TargetMol, Shanghai, China) to block the binding of SIRPα protein to CHOK1-CD47 cells or PVR protein to CHOK1-TIGIT cells were determined by flow cytometry, as previously reported. The SMIs at indicated concentrations were incubated with Fc-tagged SIRPα or PVR protein for 30 min at 4°C, followed by incubating with the indicated cells for another 30 min. Human SIRPα protein (SIA-H5251, ACRO Biosystem, Beijing, China), mouse SIRPα protein (SIA-M5258, ACRO Biosystem, Beijing, China), human PVR protein (CD5-H82F6, ACRO Biosystem, Beijing, China), and mouse PVR protein (50259-M03H, Sino Biological, Beijing, China) were used. PE-conjugated anti-human IgG antibody was used to detect the Fc protein bind to cells. Cells incubated with the Fc proteins and anti-human IgG antibody without the SMIs serve as the positive control. The mean fluorescent intensity (MFI) of each sample was detected and recorded by a flow cytometry. The blocking efficacy of the SMIs was calculated as the equation: (MFI of the positive control-MFI of the SMI)/MFI of the positive control × 100%.
The small molecule inhibitor could not only bind to the target; most importantly, it should interfere with the receptor–ligand interactions. Subsequently, the candidate inhibitors were screened by the blocking assays with the established CD47 and TIGIT over-expressing cell lines. The test was initialed with a preliminary screening of the candidates with a single concentration (Figure 2D). Generally, the SMI blocking efficacy to the CD47/SIRPα interaction was much higher than that of the TIGIT/PVR. […] Therefore, the SMI-F11 and SMI-F17 may exert dual blocking effects in the CD47/SIRPα and TIGIT/PVR pathways. Blocking assays with a concentration gradient of the SMI were further performed to validate the preliminary screening. […] The similar blocking assays with the mouse CD47 and TIGIT over-expressing cells were also performed. […] Considering that most pairs of the immune checkpoints interact with the corresponding ligand in parallel forms, the blocking assays with the PD-1/PD-L1 interaction system was also conducted to test the specificity.

Sequence of mouse PVR (F6V4I7 29-347): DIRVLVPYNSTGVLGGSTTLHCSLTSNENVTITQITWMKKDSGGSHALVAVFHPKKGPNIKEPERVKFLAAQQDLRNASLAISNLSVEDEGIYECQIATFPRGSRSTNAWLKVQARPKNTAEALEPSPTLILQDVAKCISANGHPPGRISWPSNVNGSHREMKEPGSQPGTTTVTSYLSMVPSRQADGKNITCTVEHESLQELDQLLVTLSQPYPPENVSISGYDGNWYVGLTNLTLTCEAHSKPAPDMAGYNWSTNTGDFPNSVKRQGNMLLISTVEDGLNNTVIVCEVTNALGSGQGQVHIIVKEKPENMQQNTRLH

- Kd [1]: 13.3 µM
- Kd [2]: 5.37 µM
- Kd [3]: 6.48 µM
- Kd [4]: 3.75 µM
- activity in interfering with the TIGIT/PVR interaction [7]: better activities
Structure (SMILES): CC1=C(C(=O)OC(C)C)C(c2cccc([N+](=O)[O-])c2)C(C(=O)OC2CN(C(c3ccccc3)c3ccccc3)C2)=C(N)N1 (stereo not shown) [Azelnidipine]
- differentiation and activation of THP-1 macrophages [5]: inhibit the differentiation and activation
- growth of various tumor cells in vitro [6]: inhibit the growth of various tumor cells in vitro
